Consider ten compounds from ChEMBL document CHEMBL4004877, “Synthesis and biological evaluation of chalcone, dihydrochalcone, and 1,3-diarylpropane analogs as anti-inflammatory agents” (Bioorg Med Chem Lett, 2017).

The inhibition is the drop in the measured response relative to a control, in per cent. Broadly, the IC50 is the concentration needed to halve the response being measured.

Molecules are shown by their SMILES. Values after ≈ are worked out from the molar mass of the structure shown. Bounds are passed on as bounds.

For series [1], the system named is RAW264.7. The series is described as follows: Antiinflammatory activity in mouse RAW264.7 cells assessed as inhibition of LPS induced iNOS-dependent nitric oxide production at 2.5 ug/ml after 24 hrs by Griess assay relative to control. The class given is functional. The settings on record: RAW264.7, 24 h. On the technique in general: Nitrite, measured by Griess reagent, commonly stands in for NO production.

The subject of series [2] is RAW264.7. The series is described as follows: Antiinflammatory activity in mouse RAW264.7 cells assessed as inhibition of LPS induced iNOS-dependent nitric oxide production after 24 hrs by Griess assay. Type of series: functional, cell-based. The note with it: RAW264.7, 24 h.
For series [3], the system named is RAW264.7. In words: Antiinflammatory activity in mouse RAW264.7 cells assessed as inhibition of LPS induced iNOS-dependent nitric oxide production at 10 ug/ml after 24 hrs by Griess assay relative to control. The note with it: RAW264.7, 24 h. The class given is functional.
Series [4] relates to RAW264.7. In words: Antiinflammatory activity in mouse RAW264.7 cells assessed as inhibition of LPS induced iNOS-dependent nitric oxide production at 1.25 ug/ml after 24 hrs by Griess assay relative to control. The class given is functional. The note with it: RAW264.7, 24 h.
The nature of series [5]: Cytotoxicity against LPS-stimulated mouse RAW264.7 cells assessed as cell viability at 10 ug/ml after 24 hrs by MTT assay relative to control. Type of series: cell-based. The note with it: LPS-stimulated RAW264.7 cells, read-out: Activity. For orientation: Tetrazolium assays rely on reduction of a dye to a coloured formazan, in cell work by metabolically active cells.
Series [6] relates to RAW264.7. The series is described as follows: Antiinflammatory activity in mouse RAW264.7 cells assessed as inhibition of LPS induced iNOS-dependent nitric oxide production at 5 ug/ml after 24 hrs by Griess assay relative to control. The class given is functional. The settings on record: RAW264.7, 24 h.
Series [7] can be described thus: Cytotoxicity against LPS-stimulated mouse RAW264.7 cells assessed as cell viability at 5 ug/ml after 24 hrs by MTT assay relative to control. The note with it: LPS-stimulated RAW264.7 cells, read-out: Activity. Type of series: cell-based.
The nature of series [8]: Cytotoxicity against LPS-stimulated mouse RAW264.7 cells assessed as cell viability at 2.5 ug/ml after 24 hrs by MTT assay relative to control. Type of series: cell-based. The note with it: LPS-stimulated RAW264.7 cells, read-out: Activity.
Series [9] can be described thus: Cytotoxicity against LPS-stimulated mouse RAW264.7 cells assessed as cell viability at 1.25 ug/ml after 24 hrs by MTT assay relative to control. Type of series: cell-based. The note with it: LPS-stimulated RAW264.7 cells, read-out: Activity.

Regarding `COc1ccc(/C=C/C(=O)c2cccc(O)c2)cc1OC`, the inhibition at 2.5 µg/mL in the series on RAW264.7 [1] was 3.3%. Besides, the IC50 in the series with RAW264.7 [2] was 8.38 µg/mL (≈ 29.5 µM). The inhibition at 10 µg/mL in the series on RAW264.7 [3] was determined as 65.9%. Also, in the series on RAW264.7 [4], the inhibition at 1.25 µg/mL stood at 1.7%. The viability at 24 h, 10 ug/ml in [5] turned out to be 63.9%. Also, in the series with RAW264.7 [6], the inhibition at 5 µg/mL turned out to be 3.5%. Moreover, the viability at 24 h, 5 ug/ml in [7] was 83.8%. In addition, the viability at 24 h, 2.5 ug/ml in series [8] came out at 91%. The viability at 24 h, 1.25 ug/ml in series [9] is 101%.

As to `COc1ccc(C(=O)/C=C/c2cc(OC)ccc2OC)c(O)c1`, the inhibition at 2.5 µg/mL in the series on RAW264.7 [1] was 0.7%. Moreover, the IC50 with RAW264.7 [2] is over 10 µg/mL. In addition, the inhibition at 10 µg/mL in the series with RAW264.7 [3] turned out to be 26.6%. Moreover, in the series on RAW264.7 [4], the inhibition at 1.25 µg/mL stood at 7.4%. Moreover, in [5], the viability at 24 h, 10 ug/ml amounted to 66.5%. Moreover, in the series with RAW264.7 [6], the inhibition at 5 µg/mL was 6.1%. Besides, the viability at 24 h, 5 ug/ml in series [7] was found to be 71.1%. Moreover, in [8], the viability at 24 h, 2.5 ug/ml stood at 93.3%. The viability at 24 h, 1.25 ug/ml in series [9] was found to be 95.4%.

Take `COc1ccc(CCC(=O)c2cccc(O)c2)cc1`: the inhibition at 2.5 µg/mL in the series on RAW264.7 [1] is 11%. The IC50 in the series with RAW264.7 [2] is over 10 µg/mL. In the series on RAW264.7 [3], the inhibition at 10 µg/mL came out at 40.5%. The inhibition at 1.25 µg/mL in the series with RAW264.7 [4] worked out at 5.1%. For the same compound, the viability at 24 h, 10 ug/ml in series [5] was found to be 86.3%. Also, in the series on RAW264.7 [6], the inhibition at 5 µg/mL was 20.1%. Besides, the viability at 24 h, 5 ug/ml in series [7] worked out at 94.5%. The viability at 24 h, 2.5 ug/ml in [8] amounted to 97.1%. For the same compound, in series [9], the viability at 24 h, 1.25 ug/ml stood at 97.5%.

Regarding `COc1ccc(CCC(=O)c2ccc(OC)c(OC)c2)cc1OC`, the inhibition at 2.5 µg/mL with RAW264.7 [1] is 8.2%. The IC50 in the series with RAW264.7 [2] was over 10 µg/mL. Besides, the inhibition at 10 µg/mL in the series on RAW264.7 [3] was determined as 31.1%. Besides, the inhibition at 1.25 µg/mL in the series on RAW264.7 [4] is 5.9%. Further, the viability at 24 h, 10 ug/ml in [5] was found to be 95.3%. The inhibition at 5 µg/mL in the series on RAW264.7 [6] stood at 13.8%. Besides, in series [7], the viability at 24 h, 5 ug/ml was 96.2%. For the same compound, the viability at 24 h, 2.5 ug/ml in [8] was found to be 98%. The viability at 24 h, 1.25 ug/ml in series [9] was 99.6%.

`COc1ccc(CCCc2ccc(OC)cc2OC)c(O)c1`: the inhibition at 2.5 µg/mL with RAW264.7 [1] stood at 26.9%. Moreover, the IC50 with RAW264.7 [2] turned out to be 6.71 µg/mL (≈ 22.2 µM). Moreover, in the series with RAW264.7 [3], the inhibition at 10 µg/mL was 70%. Further, the inhibition at 1.25 µg/mL in the series with RAW264.7 [4] was determined as 10.4%. Besides, the viability at 24 h, 10 ug/ml in series [5] came to 25.8%. Besides, in the series with RAW264.7 [6], the inhibition at 5 µg/mL was 35.2%. Further, in series [7], the viability at 24 h, 5 ug/ml turned out to be 91.5%. Moreover, the viability at 24 h, 2.5 ug/ml in [8] is 97.7%. Moreover, the viability at 24 h, 1.25 ug/ml in series [9] stood at 100%.

For the compound `COc1ccc(/C=C/C(=O)c2cccc(O)c2)c(OC)c1`, the inhibition at 2.5 µg/mL in the series with RAW264.7 [1] was found to be 2.3%. Besides, in the series on RAW264.7 [2], the IC50 is 9.42 µg/mL (≈ 33.1 µM). For the same compound, the inhibition at 10 µg/mL with RAW264.7 [3] is 53.9%. Further, the inhibition at 1.25 µg/mL with RAW264.7 [4] is 1.6%. Further, the viability at 24 h, 10 ug/ml in series [5] amounted to 61.6%. In the series with RAW264.7 [6], the inhibition at 5 µg/mL turned out to be 9%. Also, the viability at 24 h, 5 ug/ml in series [7] is 63%. Moreover, the viability at 24 h, 2.5 ug/ml in [8] worked out at 74%. In addition, the viability at 24 h, 1.25 ug/ml in [9] was 97.7%.

Turning to `COc1ccc(OC)c(/C=C/C(=O)c2cccc(O)c2)c1`, the inhibition at 2.5 µg/mL with RAW264.7 [1] was 52.3%. Also, the IC50 in the series on RAW264.7 [2] worked out at 2.42 µg/mL (≈ 8.51 µM). Moreover, the inhibition at 10 µg/mL in the series with RAW264.7 [3] turned out to be 77.1%. Besides, the inhibition at 1.25 µg/mL in the series with RAW264.7 [4] was determined as 2.8%. Further, the viability at 24 h, 10 ug/ml in [5] is 62.5%. In the series with RAW264.7 [6], the inhibition at 5 µg/mL came out at 52.4%. Moreover, in series [7], the viability at 24 h, 5 ug/ml came out at 67.3%. Also, the viability at 24 h, 2.5 ug/ml in [8] turned out to be 72.4%. In addition, the viability at 24 h, 1.25 ug/ml in [9] was found to be 99%.

As to `COc1ccc(/C=C/C(=O)c2ccc(OC)cc2O)cc1`, in the series on RAW264.7 [1], the inhibition at 2.5 µg/mL amounted to 3.5%. Further, in the series on RAW264.7 [2], the IC50 turned out to be 4.73 µg/mL (≈ 16.6 µM). Moreover, the inhibition at 10 µg/mL in the series on RAW264.7 [3] was 78.2%. The inhibition at 1.25 µg/mL in the series on RAW264.7 [4] worked out at 9.4%. In series [5], the viability at 24 h, 10 ug/ml is 72.6%. The inhibition at 5 µg/mL with RAW264.7 [6] is 54%. For the same compound, the viability at 24 h, 5 ug/ml in [7] amounted to 75.2%. Moreover, the viability at 24 h, 2.5 ug/ml in [8] came out at 72.3%. For the same compound, the viability at 24 h, 1.25 ug/ml in series [9] amounted to 93.3%.

Take `COc1cc(C(=O)CCc2ccc3c(c2)OCO3)ccc1O`: in the series on RAW264.7 [1], the inhibition at 2.5 µg/mL was found to be 5.5%. In the series with RAW264.7 [2], the IC50 worked out at 9.44 µg/mL (≈ 31.4 µM). Also, in the series with RAW264.7 [3], the inhibition at 10 µg/mL was 51.6%. The inhibition at 1.25 µg/mL with RAW264.7 [4] was determined as 4.2%. The viability at 24 h, 10 ug/ml in series [5] was found to be 89%. In the series with RAW264.7 [6], the inhibition at 5 µg/mL amounted to 32.2%. Moreover, the viability at 24 h, 5 ug/ml in [7] worked out at 92%. Besides, in series [8], the viability at 24 h, 2.5 ug/ml was 94.5%. For the same compound, the viability at 24 h, 1.25 ug/ml in [9] was determined as 95.3%.

Take `COc1ccc(CCC(=O)c2ccc(OC)cc2O)cc1`: in the series on RAW264.7 [1], the inhibition at 2.5 µg/mL turned out to be 10.5%. Also, the IC50 in the series with RAW264.7 [2] is over 10 µg/mL. In the series with RAW264.7 [3], the inhibition at 10 µg/mL was determined as 25.9%. Further, the inhibition at 1.25 µg/mL with RAW264.7 [4] stood at 7.8%. In addition, the viability at 24 h, 10 ug/ml in series [5] stood at 88%. Moreover, the inhibition at 5 µg/mL in the series with RAW264.7 [6] was determined as 14.5%. Also, the viability at 24 h, 5 ug/ml in series [7] was determined as 92.3%. Moreover, the viability at 24 h, 2.5 ug/ml in series [8] came out at 94.5%. Moreover, the viability at 24 h, 1.25 ug/ml in series [9] worked out at 95.1%.
